Measurements taken from US11667602B2, “Compounds and their use” (AstraZeneca AB, priority 2020, dated 2023).
Converted amounts (≈) assume the structure as drawn.

Assays:
[1] = Human Plasma Protein Binding (Test B); type: in vitro ADME; details: fraction unbound (fu)
Summary of the method: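 Human plasma protein binding run per the published Wernevik et al. (2020) integrated DMPK panel protocol. Values are fraction unbound (fu, % free); repeat runs averaged arithmetically.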

[2] = Human Liver Microsomal Stability (Test C); type: in vitro ADME; details: human, liver microsomes
Summary of the method: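 Human liver microsome incubation per the Wernevik et al. integrated DMPK panel protocol. Intrinsic clearance reported as CLint in μl/min/mg protein, averaged arithmetically over repeat runs.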

[3] = Rat Hepatocyte Stability (Test E); type: in vitro ADME; details: rat, hepatocytes, geometric mean if run multiple times
Summary of the method: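 Run per the published AstraZeneca-type rat hepatocyte stability protocol (Wernevik et al. panel). Values are mean intrinsic clearance, Clint in μl/min/10^6 cells; geometric mean used for repeated runs.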

[4] = Solubility (Test F); type: physicochemical; details: arithmetic mean if run multiple times
Description: The assay was conducted according to the Solubility Assay described in pages 164-167 of Wernevik, J. et al., “A Fully Integrated Assay Panel for Early Drug Metabolism and Pharmacokinetics Profiling”, Assay and Drug Development Technologies, 2020, 18(4), 157-179. Data are reported in Table 36 as solubility ([…]. Where the assay was run multiple times for the same compound, the arithmetic mean is reported.

[5] = target: T1, human RXFP1 (Homo sapiens, UniProt Q9HBX9); test: RXFP1 Hu cAMP (Test A); type: cell-based; parameters: expressed in transfected cells; host or cells: Jump-In T-REx CHO-K1 cells (ThermoFisher), induced with 10 ng/ml doxycycline for 24 h; details: RXFP1 Hu cAMP; for EC50: read-out: Test A EC50
T1 sequence (Q9HBX9 1-757): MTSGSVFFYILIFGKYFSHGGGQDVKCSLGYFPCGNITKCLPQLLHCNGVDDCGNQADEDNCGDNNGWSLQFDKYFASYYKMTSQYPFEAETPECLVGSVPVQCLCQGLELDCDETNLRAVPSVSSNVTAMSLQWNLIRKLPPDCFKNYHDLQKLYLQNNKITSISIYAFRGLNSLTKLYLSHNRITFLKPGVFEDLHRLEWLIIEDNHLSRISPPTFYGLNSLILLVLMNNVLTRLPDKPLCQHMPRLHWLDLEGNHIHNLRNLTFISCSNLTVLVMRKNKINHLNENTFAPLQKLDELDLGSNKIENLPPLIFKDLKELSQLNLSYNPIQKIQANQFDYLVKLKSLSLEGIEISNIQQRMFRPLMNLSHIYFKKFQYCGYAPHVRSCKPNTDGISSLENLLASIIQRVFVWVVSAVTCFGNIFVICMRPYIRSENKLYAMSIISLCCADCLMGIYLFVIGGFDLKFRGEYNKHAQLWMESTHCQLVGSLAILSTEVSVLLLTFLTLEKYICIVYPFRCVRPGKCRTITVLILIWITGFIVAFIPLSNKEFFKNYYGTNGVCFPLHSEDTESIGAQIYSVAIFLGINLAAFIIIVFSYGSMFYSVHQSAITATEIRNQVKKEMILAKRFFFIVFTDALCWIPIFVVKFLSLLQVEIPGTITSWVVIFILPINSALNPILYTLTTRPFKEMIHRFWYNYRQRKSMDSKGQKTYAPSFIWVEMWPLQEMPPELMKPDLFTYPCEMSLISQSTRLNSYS
Summary of the method: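 Doxycycline-induced (10 ng/ml, 24 h) CHO-K1 cells stably expressing human RXFP1; cAMP read by competitive HTRF after 2 h at room temperature, with 0.5 mM IBMX final.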

Row | Test B Human Plasma Protein Binding (% free) [1] [% free] | microsomal CLint [2] [µL/min/mg] | hepatocyte CLint [3] [µL/min/1e6 cells] | solubility [4] [µM] | Test A Sinf [5] [%] | EC50 [5] [nM] | SMILES
1 | 2.3 | 19 | 12 | 780 (≈ 519 µg/mL) | 97 | 130 | COc1cc(F)c(-c2cnc(NCC(=O)O)nc2)cc1C(=O)N[C@@H]1[C@H]2CC[C@H](C2)[C@@H]1C(=O)Nc1cccc(S(=O)(=O)C(F)(F)F)c1 [Example 240]
2 | 7.6 | 12 | 12 | 380 (≈ 202 µg/mL) | 104 | 71 | COc1cc(F)c(O[C@H]2CC[C@@](C)(C(=O)O)CC2)cc1C(=O)N[C@@H]1[C@H]2CC[C@H](C2)[C@@H]1C(=O)N[C@H](C)C(C)C [Example 46]
3 | 2.7 | 23 | 64 | 850 (≈ 505 µg/mL) | 107 | 410 | COc1cc(F)c(O[C@H]2CC[C@@H](C(=O)O)CC2)cc1C(=O)N[C@@H]1[C@H]2CC[C@H](C2)[C@@H]1C(=O)Nc1ccnc(C(F)(F)F)c1 [Example 12, (1S,4s)-4-(2-Fluoro-4-methoxy-5-(((1S,2R,3S,4R)-3-((2-(trifluoromethyl)pyridin-4-yl)carbamoyl)bicyclo[2.2.1]heptan-2-yl)carbamoyl)phenoxy)cyclohexane-1-carboxylic acid]
4 | 0.53 | 31 | 24 | 530 (≈ 330 µg/mL) | 99 | 470 | COc1cc(NC(=O)[C@H]2[C@@H]3CC[C@@H](C3)[C@H]2NC(=O)c2cc(O[C@H]3CC[C@@H](C(=O)O)CC3)c(F)cc2OC)cc(C(F)(F)F)c1 [Example 194]
5 | 0.30 | 31 | 12 | > 1000 | 114 | 34 | COc1cc(F)c(-c2ccc3c(c2)OC[C@@H]3CC(=O)O)cc1C(=O)N[C@@H]1[C@H]2CC[C@H](C2)[C@@H]1C(=O)Nc1cccc(S(=O)(=O)C(F)(F)F)c1 [Example 254]
6 | 0.59 | 31 | 130 | 440 (≈ 246 µg/mL) | 102 | 420 | COc1cc(F)c(O[C@H]2CC[C@@H](C(=O)O)CC2)cc1C(=O)N[C@@H]1[C@H]2CC[C@H](C2)[C@@H]1C(=O)Nc1cccc(Cl)c1 [Example 25]
7 | 3.1 | 24 | 10 | 520 (≈ 309 µg/mL) | 115 | 6300 | COc1cc(F)c(O[C@H]2CC[C@@H](C(=O)O)CC2)cc1C(=O)N[C@@H]1[C@H]2CC[C@H](C2)[C@@H]1C(=O)Nc1ccc(C(F)(F)F)cn1 [Example 13, (1S,4s)-4-(2-Fluoro-4-methoxy-5-(((1S,2R,3S,4R)-3-((5-(trifluoromethyl)pyridin-2-yl)carbamoyl)bicyclo[2.2.1]heptan-2-yl)carbamoyl)phenoxy)cyclohexane-1-carboxylic acid]
8 | 0.93 | 29 | 61 | > 1000 | 105 | 62 | COc1cc(F)c(O[C@H]2CC[C@@H](C(=O)O)CC2)cc1C(=O)N[C@@H]1[C@H]2CC[C@H](C2)[C@@H]1C(=O)Nc1cccc(C(F)(F)F)c1 [Example 193]

The next lines start with the compound.

Row | SMILES | Test B Human Plasma Protein Binding (% free) [1] [% free] | microsomal CLint [2] [µL/min/mg] | hepatocyte CLint [3] [µL/min/1e6 cells] | solubility [4] [µM] | Test A Sinf [5] [%] | EC50 [5] [nM]
9 | CCOCC1(CNC(=O)[C@H]2[C@@H]3CC[C@@H](C3)[C@H]2NC(=O)c2cc(O[C@H]3CC[C@@](C)(C(=O)O)CC3)c(C#N)cc2OC)CCC1 [Example 104] | 6.4 | 59 | 28 | 920 (≈ 548 µg/mL) | 122 | 270
10 | COc1cc(C#N)c(O[C@H]2CC[C@@](C)(C(=O)O)CC2)cc1C(=O)N[C@@H]1[C@H]2CC[C@H](C2)[C@@H]1C(=O)NCC1(O)CCC(F)(F)CC1 [Example 101] | 20 | < 3 | 28 | 990 (≈ 612 µg/mL) | 100 | > 3500
11 | COc1cc(C#N)c(O[C@H]2CC[C@@](C)(C(=O)O)CC2)cc1C(=O)N[C@@H]1[C@H]2CC[C@H](C2)[C@@H]1C(=O)NCC1(O)CCCCCC1 [Example 103] | 10 | 11 | 38 | 860 (≈ 512 µg/mL) | – | > 5000
12 | COc1cc(C#N)c(O[C@H]2CC[C@@](C)(C(=O)O)CC2)cc1C(=O)N[C@@H]1[C@H]2CC[C@H](C2)[C@@H]1C(=O)NCC(C)(C)O [Example 76] | 47 | < 3 | 12 | 790 (≈ 428 µg/mL) | 100 | 41000
13 | COc1cc(F)c(O[C@H]2CC[C@@](C)(C(=O)O)CC2)cc1C(=O)Nc1nn2cccnc2c1C(=O)NCC1(C)CCC1 [Example 217, (1s,4s)-4-(2-Fluoro-4-methoxy-5-((3-(((1-methylcyclobutyl)methyl)carbamoyl)pyrazolo[1,5-a]pyrimidin-2-yl)carbamoyl)phenoxy)-1-methylcyclohexane-1-carboxylic acid] | 0.19 | 43 | 17 | < 7.3 | – | > 9400
14 | COc1cc(F)c(OCCCCC(=O)O)cc1C(=O)N[C@H]1[C@@H](C(=O)Nc2cccc(S(=O)(=O)C(F)(F)F)c2)[C@@H]2C=C[C@H]1C2 (racemic) [Example 451] | 0.93 | 15 | 68 | 700 (≈ 440 µg/mL) | 127 | 310
15 | COc1cc(F)c(O[C@H]2CC[C@@](C)(C(=O)O)CC2)cc1C(=O)Nc1cc2ccccc2cc1C(=O)NCC1(C)CCC1 [Example 215, (1s,4s)-4-(2-Fluoro-4-methoxy-5-((3-(((1-methylcyclobutyl)methyl)carbamoyl)naphthalen-2-yl)carbamoyl)phenoxy)-1-methylcyclohexane-1-carboxylic acid] | 0.20 | < 3 | 20 | < 0.23 | 143 | 200
16 | COc1cc(F)c(-c2cccc(CCC(=O)O)c2)cc1C(=O)N[C@H]1[C@@H](C(=O)Nc2cccc(S(=O)(=O)C(F)(F)F)c2)[C@@H]2C=C[C@H]1C2 (racemic) [Example 282] | <0.25 | 6.2 | 12 | 48 (≈ 31.7 µg/mL) | 105 | 490
17 | COc1cc(F)c(-c2ccc(C(=O)O)cc2)cc1C(=O)N[C@@H]1[C@H]2CC[C@H](C2)[C@@H]1C(=O)Nc1cccc(S(F)(F)(F)(F)F)c1 [Example 209, 2′-Fluoro-4′-methoxy-5′-(((1S,2R,3S,4R)-3-((3-(pentafluoro-λ6-sulfaneyl)phenyl)carbamoyl)bicyclo[2.2.1]heptan-2-yl)carbamoyl)-[1,1′-biphenyl]-4-carboxylic acid] | 0.10 | 21 | 23 | 54 (≈ 33.9 µg/mL) | 101 | 88
